Test results from patent US7718808B2, “Thiazole derivatives” (Kyowa Hakko Kirin Co., Ltd., priority 2003, dated 2010).

Compared with COCC(=O)c1sc(NC(=O)c2ccc(Cl)nc2)nc1-c1ccco1 [Compound 404, 2-Chloro-N-[4-(2-furyl)-5-(methoxyacetyl)thiazol-2-yl]pyridine-5-carboxamide], COCC(=O)c1sc(NC(=O)c2ccc(F)cc2)nc1-c1ccco1 [Compound 405, 4-Fluoro-N-[4-(2-furyl)-5-(methoxyacetyl)thiazol-2-yl]benzamide] is lower in melting point: 174 to 183 °C for the first, 166 to 167 °C for the second.

First: COCC#CC(=O)c1sc(NC(=O)c2ccncc2)nc1-c1ccco1 [Compound 413, N-[4-(2-Furyl)-5-(3-methoxypropa-1-ynylcarbonyl)thiazol-2-yl]pyridine-4-carboxamide]
Second: COC1CCC(C(=O)c2sc(NC(=O)c3ccncc3)nc2-c2ccco2)CC1 (stereo not shown) [Compound 442, N-[4-(2-Furyl)-5-(4-methoxycyclohexylcarbonyl)thiazol-2-yl]pyridine-4-carboxamide]
The melting point of the first is higher: 198 to 200 °C for the first, 180 to 187 °C for the second.

First: COc1ccccc1C(=O)Nc1nc(-c2ccco2)c(C(=O)C2CC2)s1 [Compound 420, N-[5-(Cyclopropylcarbonyl)-4-(2-furyl)thiazol-2-yl]-2-methoxybenzamide]
Second: COc1ccccc1C(=O)Nc1nc(-c2ccco2)c(C(=O)C2CCOCC2)s1 [Compound 461, N-[4-(2-Furyl)-5-(tetrahydropyran-4-ylcarbonyl)thiazol-2-yl]-2-methoxybenzamide]
The melting point of the first is lower: 150 to 154 °C for the first, 181 to 184 °C for the second.

First: O=C(Nc1nc(-c2ccco2)c(C(=O)C2CCC2)s1)c1ccco1 [Compound 425, N-[5-(Cyclobutylcarbonyl)-4-(2-furyl)thiazol-2-yl]furan-2-carboxamide]
Second: O=C1CCC(C(=O)c2sc(NC(=O)c3ccco3)nc2-c2ccco2)CC1 [Compound 450, N-[4-(2-Furyl)-5-(4-oxocyclohexylcarbonyl)thiazol-2-yl]furan-2-carboxamide]
The melting point of the first is lower: 188 to 192 °C for the first, 232 to 235 °C for the second.

Compared with N#Cc1ccc(C(=O)Nc2nc(-c3ccco3)c(C(=O)C3CCC3)s2)cc1 [Compound 426, 4-Cyano-N-[5-(cyclobutylcarbonyl)-4-(2-furyl)thiazol-2-yl]benzamide], N#Cc1ccc(C(=O)Nc2nc(-c3ccco3)c(C(=O)C3CCOCC3)s2)cc1 [Compound 474, 4-Cyano-N-[4-(2-furyl)-5-(tetrahydropyran-4-ylcarbonyl)thiazol-2-yl]benzamide] is higher in melting point: 220 to 225 °C for the first, 231 to 234 °C for the second.

Compared with O=C(Nc1nc(-c2ccco2)c(C(=O)C2CCC2)s1)C1CC1 [Compound 427, N-[5-(Cyclobutylcarbonyl)-4-(2-furyl)thiazol-2-yl]cyclopropanecarboxamide], O=C(Nc1nc(-c2ccco2)c(C(=O)C2CCCC2)s1)C1CC1 [Compound 434, N-[5-(Cyclopentylcarbonyl)-4-(2-furyl)thiazol-2-yl]cyclopropanecarboxamide] is lower in melting point: 200 to 205 °C for the first, 182 to 187 °C for the second.

First: O=C(c1sc(NC(=O)N2CCOCC2)nc1-c1ccco1)C1CCCC1 [Compound 435, N-[5-(Cyclopentylcarbonyl)-4-(2-furyl)thiazol-2-yl]-morpholine-4-carboxamide]
Second: O=C(Nc1nc(-c2ccco2)c(C(=O)C2CCOCC2)s1)c1ccc(CN2CCCCC2)cc1 [Compound 480, N-[4-(2-Furyl)-5-(tetrahydropyran-4-ylcarbonyl)thiazol-2-yl]-4-(piperidinomethyl)benzamide]
The melting point of the first is lower: 108 to 110 °C for the first, 160 to 162 °C for the second.

First: COC1CCC(C(=O)c2sc(NC(=O)c3ccc(C#N)cc3)nc2-c2ccco2)CC1 (stereo not shown) [Compound 443, 4-Cyano-N-[4-(2-furyl)-5-(4-methoxycyclohexylcarbonyl)thiazol-2-yl]benzamide]
Second: N#Cc1ccc(C(=O)Nc2nc(-c3ccco3)c(C(=O)C3CCC(=O)CC3)s2)cc1 [Compound 452, 4-Cyano-N-[4-(2-furyl)-5-(4-oxocyclohexylcarbonyl)thiazol-2-yl]benzamide]
The melting point of the first is lower: 105 to 109 °C for the first, 211 to 212 °C for the second.

Compared with O=C1CCC(C(=O)c2sc(NC(=O)c3ccncc3)nc2-c2ccco2)CC1 [Compound 448, N-[4-(2-Furyl)-5-(4-oxocyclohexylcarbonyl)thiazol-2-yl]pyridine-4-carboxamide], Cc1cc(C(=O)Nc2nc(-c3ccco3)c(C(=O)C3CCC(=O)CC3)s2)ccn1 [Compound 449, N-[4-(2-Furyl)-5-(4-oxocyclohexylcarbonyl)thiazol-2-yl]-2-methylpyridine-4-carboxamide] is lower in melting point: 206 to 212 °C for the first, 108 to 115 °C for the second.

First: COc1cccc(C(=O)Nc2nc(-c3ccco3)c(C(=O)C3CCC(=O)CC3)s2)c1 [Compound 451, N-[4-(2-Furyl)-5-(4-oxocyclohexylcarbonyl)thiazol-2-yl]-3-methoxybenzamide]
Second: Cc1cccc(C(=O)Nc2nc(-c3ccco3)c(C(=O)C3CCOCC3)s2)c1 [Compound 459, N-[4-(2-Furyl)-5-(tetrahydropyran-4-ylcarbonyl)thiazol-2-yl]-3-methylbenzamide]
The melting point of the first is lower: 176 to 183 °C for the first, 197 to 201 °C for the second.

First: O=C(Nc1nc(-c2ccco2)c(C(=O)C2CCOCC2)s1)c1ccccc1 [Compound 457, N-[4-(2-Furyl)-5-(tetrahydropyran-4-ylcarbonyl)thiazol-2-yl]benzamide]
Second: O=C(Nc1nc(-c2ccco2)c(C(=O)C2CCOCC2)s1)c1ccccc1Cl [Compound 469, 2-Chloro-N-[4-(2-furyl)-5-(tetrahydropyran-4-ylcarbonyl)thiazol-2-yl]benzamide]
The melting point of the first is higher: 221 to 222 °C for the first, 160 to 162 °C for the second.

Compared with Cc1ccccc1C(=O)Nc1nc(-c2ccco2)c(C(=O)C2CCOCC2)s1 [Compound 458, N-[4-(2-Furyl)-5-(tetrahydropyran-4-ylcarbonyl)thiazol-2-yl]-2-methylbenzamide], O=C(Nc1nc(-c2ccco2)c(C(=O)C2CCOCC2)s1)c1ccccc1F [Compound 466, 2-Fluoro-N-[4-(2-furyl)-5-(tetrahydropyran-4-ylcarbonyl)thiazol-2-yl]benzamide] is lower in melting point: 204 to 206 °C for the first, 172 to 176 °C for the second.

Compared with Cc1ccc(C(=O)Nc2nc(-c3ccco3)c(C(=O)C3CCOCC3)s2)cc1 [Compound 460, N-[4-(2-Furyl)-5-(tetrahydropyran-4-ylcarbonyl)thiazol-2-yl]-4-methylbenzamide], O=C(Nc1nc(-c2ccco2)c(C(=O)C2CCOCC2)s1)c1ccc(Cl)cc1 [Compound 471, 4-Chloro-N-[4-(2-furyl)-5-(tetrahydropyran-4-ylcarbonyl)thiazol-2-yl]benzamide] is higher in melting point: 190 to 192 °C for the first, 204 to 206 °C for the second.

First: COc1ccc(C(=O)Nc2nc(-c3ccco3)c(C(=O)C3CCOCC3)s2)cc1 [Compound 463, N-[4-(2-Furyl)-5-(tetrahydropyran-4-ylcarbonyl)thiazol-2-yl]-4-methoxybenzamide]
Second: O=C(Nc1nc(-c2ccco2)c(C(=O)C2CCOCC2)s1)c1ccc(OC(F)(F)F)cc1 [Compound 477, N-[4-(2-Furyl)-5-(tetrahydropyran-4-ylcarbonyl)thiazol-2-yl]-4-(trifluoromethoxy)benzamide]
The melting point of the first is higher: 184 to 188 °C for the first, 177 to 180 °C for the second.

CN(C)c1cccc(C(=O)Nc2nc(-c3ccco3)c(C(=O)C3CCOCC3)s2)c1 [Compound 464, 3-(Dimethylamino)-N-[4-(2-furyl)-5-(tetrahydropyran-4-ylcarbonyl)thiazol-2-yl]benzamide] and CN(C)c1ccc(C(=O)Nc2nc(-c3ccco3)c(C(=O)C3CCOCC3)s2)cc1 [Compound 465, 4-(Dimethylamino)-N-[4-(2-furyl)-5-(tetrahydropyran-4-ylcarbonyl)thiazol-2-yl]benzamide] cannot be ordered by melting point: 239 to 243 °C for the first, 238 to 240 °C for the second.

First: O=C(Nc1nc(-c2ccco2)c(C(=O)C2CCOCC2)s1)c1cccc(F)c1 [Compound 467, 3-Fluoro-N-[4-(2-furyl)-5-(tetrahydropyran-4-ylcarbonyl)thiazol-2-yl]benzamide]
Second: O=C(Nc1nc(-c2ccco2)c(C(=O)C2CCOCC2)s1)c1cccc(Cl)c1 [Compound 470, 3-Chloro-N-[4-(2-furyl)-5-(tetrahydropyran-4-ylcarbonyl)thiazol-2-yl]benzamide]
The melting point of the first is higher: 229 to 231 °C for the first, 210 to 212 °C for the second.

Compared with N#Cc1ccccc1C(=O)Nc1nc(-c2ccco2)c(C(=O)C2CCOCC2)s1 [Compound 472, 2-Cyano-N-[4-(2-furyl)-5-(tetrahydropyran-4-ylcarbonyl)thiazol-2-yl]benzamide], N#Cc1cccc(C(=O)Nc2nc(-c3ccco3)c(C(=O)C3CCOCC3)s2)c1 [Compound 473, 3-Cyano-N-[4-(2-furyl)-5-(tetrahydropyran-4-ylcarbonyl)thiazol-2-yl]benzamide] is higher in melting point: 221 to 224 °C for the first, 257 to 260 °C for the second.

First: O=C(Nc1nc(-c2ccco2)c(C(=O)C2CCOCC2)s1)c1ccccc1OC(F)(F)F [Compound 475, N-[4-(2-Furyl)-5-(tetrahydropyran-4-ylcarbonyl)thiazol-2-yl]-2-(trifluoromethoxy)benzamide]
Second: O=C(Nc1nc(-c2ccco2)c(C(=O)C2CCOCC2)s1)c1cccc(OC(F)(F)F)c1 [Compound 476, N-[4-(2-Furyl)-5-(tetrahydropyran-4-ylcarbonyl)thiazol-2-yl]-3-(trifluoromethoxy)benzamide]
The melting point of the first is lower: 131 to 134 °C for the first, 197 to 198 °C for the second.

Work on CN(C)Cc1ccc(C(=O)Nc2nc(-c3ccco3)c(C(=O)C3CCOCC3)s2)cc1 [Compound 479, 4-(Dimethylaminomethyl)-N-[4-(2-furyl)-5-(tetrahydropyran-4-ylcarbonyl)thiazol-2-yl]benzamide] yielded a melting point of 109 to 112 °C.

For O=C(Nc1nc(-c2ccco2)c(C(=O)C2CC2)s1)c1ccncc1 [Compound 417, N-[5-(Cyclopropylcarbonyl)-4-(2-furyl)thiazol-2-yl]pyridine-4-carboxamide], the melting point was 225 to 230 °C (dec.).
In the case of Nc1nc(-c2ccco2)c(C(=O)C2CCC2)s1 [Compound 423, 2-Amino-4-(2-furyl)thiazol-5-yl cyclobutyl ketone], the melting point is reported as 125 to 160 °C (dec.).
With O=C(Nc1nc(-c2ccco2)c(C(=O)C2CCC2)s1)c1ccncc1 [Compound 424, N-[5-(Cyclobutylcarbonyl)-4-(2-furyl)thiazol-2-yl]pyridine-4-carboxamide] the melting point was 227 to 235 °C (dec.).
